Experimental data reported in patent US20230020320A1, “Liquid Composition for Cleaning, Sanitizing and/or Disinfecting” (CORTICALIS AS, priority 2020, published 2023).
Entries after “also recorded” stand apart in the source; their conditions may differ. Like-named read-outs stand apart in the source and are kept apart here.

Columns and labels:
S. epidermidis [1] = test: Staining of living and dead bacteria on decontaminated titanium surfaces, confocal microscope; format: cell-based; conditions: submerged in sanitizing solution 5 minutes on slow shaker
Description: Titanium surfaces contaminated with S. epidermidis bacteria and grown to biofilm in BHI broth was removed from growth medium and submerged in sanitizing solution for 5 minutes on a slow shaker. Discs were sanitized with A) saline (Negative control), B) Chlorhexidine 0.2% w/v, or C) H2O2 3% v/v+f-127 pluronic Acid 5% w/v. After cleaning the surfaces were stained with fluorescent dyes, green for living microbes and red for dead microbes. […] Surfaces were visualized in a confocal microscope after cleaning and staining (FIG. 4).

S. epidermidis [2] = test: Regrowth of luciferase-harbouring bacteria on sanitized titanium surfaces, fluorometer; format: cell-based; conditions: 5 minutes in sanitizing solution; for Time until regrowth of the biofilm after cleaning: then BHI medium at 37 centigrade, hourly reading
Description: Regrowth of S. epidermidis after sanitizing a contaminated titanium surface Regrowth of S. epidermidis bacteria harbouring the luciferase gene making them fluorescent, on sanitized titanium surfaces. Surfaces was first contaminated with bacteria and incubated in BHI broth until the surfaces were completely covered in biofilm. The titanium discs were then submerged in sanitizing solution and left on a slow shaker for 5 minutes. After sanitizing the discs were rinsed in a large volume of sterile water, then covered by BHI medium again and incubated at 37 centigrade. At hourly intervals the discs were placed in a fluorometer to measure regrowth of bacteria by amount of fluorescent as compared to an untreated calibrated control and a sterile disc.

[3] = cited from earlier work
[4] = test system: non-spore forming bacteria; conditions: in less than 30 seconds, in the laboratory and on human skin; cited from earlier work

Structure (SMILES)	Killing of microbes (green living / red dead staining) (S. epidermidis [1])	Removal of biofilm/contamination from titanium surface (S. epidermidis [1])	Biofilm remaining on the surface (S. epidermidis [2])	Killing of bacteria (S. epidermidis [2])	Time until regrowth of the biofilm after cleaning (S. epidermidis [2])	Effect on wound healing ([3]; 0.03% v/v solution, only if not applied repeatedly)	Effect on wound healing ([3]; 0.5% v/v solution)	Non-spore forming bacteria killed [4]
N=C(NCCCCCCNC(=N)NC(=N)Nc1ccc(Cl)cc1)NC(=N)Nc1ccc(Cl)cc1 [Chlorhexidine 0.2% w/v, Chlorhexidine]	killed all microbes; also recorded: killed all bacteria	left the dead cells to contaminate the surface; also recorded: left them to contaminate the surface	the dead biofilm stuck and remained on the surface	killed all bacteria	no regrowth observed			
OO [hydrogen peroxide, Hydrogen peroxide]					about 13 hours	may induce healing	impede healing	
CC(C)O [Isopropyl alcohol]								≥ 99.99%
